How the values were obtained:
[1] = molecular target: Glutamate NMDA receptor (Rattus norvegicus) (UniProt P35439+Q00959+Q00960+Q00961+Q62645+Q8VHN2+Q9R1M7); settings: Compound concentration 10.0 uM
[2] = molecular target: Prostaglandin D2 receptor (Homo sapiens) (UniProt Q13258); assay: Prostanoid DP Eurofins-Panlabs radioligand binding assay; settings: Compound concentration 10.0 uM
[3] = molecular target: 5-hydroxytryptamine receptor 1B (Homo sapiens) (UniProt P28222); assay: Inhibition of Serotonin (5-Hydroxytryptamine) 5-HT1B at 10 µM in the Eurofins-Panlabs radioligand binding assay (Eurofins_assay_271200); settings: Compound concentration 10.0 uM
Sequence of 5-hydroxytryptamine receptor 1B (Homo sapiens) (P28222 whole entry): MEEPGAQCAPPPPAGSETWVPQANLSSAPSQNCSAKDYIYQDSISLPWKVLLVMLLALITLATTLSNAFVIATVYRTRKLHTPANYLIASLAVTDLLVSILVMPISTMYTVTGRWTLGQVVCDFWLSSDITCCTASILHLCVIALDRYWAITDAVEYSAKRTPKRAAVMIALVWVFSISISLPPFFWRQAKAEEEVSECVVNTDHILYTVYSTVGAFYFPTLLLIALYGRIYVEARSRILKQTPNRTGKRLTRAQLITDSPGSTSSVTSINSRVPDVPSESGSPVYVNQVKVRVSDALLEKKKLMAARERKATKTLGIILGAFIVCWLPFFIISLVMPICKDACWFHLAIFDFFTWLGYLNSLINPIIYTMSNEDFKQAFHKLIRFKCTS

[4] = molecular target: T1, Muscarinic acetylcholine receptor M1 (Homo sapiens) (UniProt P11229); assay: Agonism inflection point assay
T1 sequence (whole entry): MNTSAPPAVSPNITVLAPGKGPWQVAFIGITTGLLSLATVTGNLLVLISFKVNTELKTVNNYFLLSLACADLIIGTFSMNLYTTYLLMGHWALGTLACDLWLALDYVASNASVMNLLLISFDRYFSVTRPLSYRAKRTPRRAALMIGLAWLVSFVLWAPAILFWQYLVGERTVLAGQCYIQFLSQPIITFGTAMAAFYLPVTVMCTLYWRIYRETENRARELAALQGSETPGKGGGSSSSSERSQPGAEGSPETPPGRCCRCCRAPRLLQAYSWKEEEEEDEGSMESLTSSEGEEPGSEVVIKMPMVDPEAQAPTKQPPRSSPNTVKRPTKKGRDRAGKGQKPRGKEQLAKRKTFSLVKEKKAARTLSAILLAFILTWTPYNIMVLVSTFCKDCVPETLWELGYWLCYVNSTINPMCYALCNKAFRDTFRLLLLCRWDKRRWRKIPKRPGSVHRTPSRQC

[5] = molecular target: T2, D(4) dopamine receptor (Homo sapiens) (UniProt P21917); assay: Dopamine D4.4 Eurofins-Panlabs radioligand binding assay; parameters: ligand concentration 1.2 nM; settings: Compound concentration 10.0 uM
T2 sequence (whole entry): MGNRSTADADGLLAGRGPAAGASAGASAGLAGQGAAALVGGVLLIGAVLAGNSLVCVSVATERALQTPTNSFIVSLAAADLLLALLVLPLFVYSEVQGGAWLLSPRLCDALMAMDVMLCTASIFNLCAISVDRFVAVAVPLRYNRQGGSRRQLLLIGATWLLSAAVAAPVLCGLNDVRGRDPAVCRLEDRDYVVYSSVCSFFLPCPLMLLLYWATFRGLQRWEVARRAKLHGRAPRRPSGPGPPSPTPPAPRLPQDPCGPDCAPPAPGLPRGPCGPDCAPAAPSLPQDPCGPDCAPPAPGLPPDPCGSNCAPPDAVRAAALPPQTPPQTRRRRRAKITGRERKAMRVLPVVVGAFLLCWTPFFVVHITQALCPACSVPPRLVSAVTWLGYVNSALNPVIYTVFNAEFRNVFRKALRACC

[6] = molecular target: Inositol 1,4,5-trisphosphate-gated calcium channel ITPR1 (Homo sapiens) (UniProt Q14643); assay: Inositol Trisphosphate IP3 Eurofins-Panlabs radioligand binding assay; settings: Rattus norvegicus; Compound concentration 10.0 uM
Sequence of Inositol 1,4,5-trisphosphate-gated calcium channel ITPR1 (Homo sapiens) (Q14643 whole entry): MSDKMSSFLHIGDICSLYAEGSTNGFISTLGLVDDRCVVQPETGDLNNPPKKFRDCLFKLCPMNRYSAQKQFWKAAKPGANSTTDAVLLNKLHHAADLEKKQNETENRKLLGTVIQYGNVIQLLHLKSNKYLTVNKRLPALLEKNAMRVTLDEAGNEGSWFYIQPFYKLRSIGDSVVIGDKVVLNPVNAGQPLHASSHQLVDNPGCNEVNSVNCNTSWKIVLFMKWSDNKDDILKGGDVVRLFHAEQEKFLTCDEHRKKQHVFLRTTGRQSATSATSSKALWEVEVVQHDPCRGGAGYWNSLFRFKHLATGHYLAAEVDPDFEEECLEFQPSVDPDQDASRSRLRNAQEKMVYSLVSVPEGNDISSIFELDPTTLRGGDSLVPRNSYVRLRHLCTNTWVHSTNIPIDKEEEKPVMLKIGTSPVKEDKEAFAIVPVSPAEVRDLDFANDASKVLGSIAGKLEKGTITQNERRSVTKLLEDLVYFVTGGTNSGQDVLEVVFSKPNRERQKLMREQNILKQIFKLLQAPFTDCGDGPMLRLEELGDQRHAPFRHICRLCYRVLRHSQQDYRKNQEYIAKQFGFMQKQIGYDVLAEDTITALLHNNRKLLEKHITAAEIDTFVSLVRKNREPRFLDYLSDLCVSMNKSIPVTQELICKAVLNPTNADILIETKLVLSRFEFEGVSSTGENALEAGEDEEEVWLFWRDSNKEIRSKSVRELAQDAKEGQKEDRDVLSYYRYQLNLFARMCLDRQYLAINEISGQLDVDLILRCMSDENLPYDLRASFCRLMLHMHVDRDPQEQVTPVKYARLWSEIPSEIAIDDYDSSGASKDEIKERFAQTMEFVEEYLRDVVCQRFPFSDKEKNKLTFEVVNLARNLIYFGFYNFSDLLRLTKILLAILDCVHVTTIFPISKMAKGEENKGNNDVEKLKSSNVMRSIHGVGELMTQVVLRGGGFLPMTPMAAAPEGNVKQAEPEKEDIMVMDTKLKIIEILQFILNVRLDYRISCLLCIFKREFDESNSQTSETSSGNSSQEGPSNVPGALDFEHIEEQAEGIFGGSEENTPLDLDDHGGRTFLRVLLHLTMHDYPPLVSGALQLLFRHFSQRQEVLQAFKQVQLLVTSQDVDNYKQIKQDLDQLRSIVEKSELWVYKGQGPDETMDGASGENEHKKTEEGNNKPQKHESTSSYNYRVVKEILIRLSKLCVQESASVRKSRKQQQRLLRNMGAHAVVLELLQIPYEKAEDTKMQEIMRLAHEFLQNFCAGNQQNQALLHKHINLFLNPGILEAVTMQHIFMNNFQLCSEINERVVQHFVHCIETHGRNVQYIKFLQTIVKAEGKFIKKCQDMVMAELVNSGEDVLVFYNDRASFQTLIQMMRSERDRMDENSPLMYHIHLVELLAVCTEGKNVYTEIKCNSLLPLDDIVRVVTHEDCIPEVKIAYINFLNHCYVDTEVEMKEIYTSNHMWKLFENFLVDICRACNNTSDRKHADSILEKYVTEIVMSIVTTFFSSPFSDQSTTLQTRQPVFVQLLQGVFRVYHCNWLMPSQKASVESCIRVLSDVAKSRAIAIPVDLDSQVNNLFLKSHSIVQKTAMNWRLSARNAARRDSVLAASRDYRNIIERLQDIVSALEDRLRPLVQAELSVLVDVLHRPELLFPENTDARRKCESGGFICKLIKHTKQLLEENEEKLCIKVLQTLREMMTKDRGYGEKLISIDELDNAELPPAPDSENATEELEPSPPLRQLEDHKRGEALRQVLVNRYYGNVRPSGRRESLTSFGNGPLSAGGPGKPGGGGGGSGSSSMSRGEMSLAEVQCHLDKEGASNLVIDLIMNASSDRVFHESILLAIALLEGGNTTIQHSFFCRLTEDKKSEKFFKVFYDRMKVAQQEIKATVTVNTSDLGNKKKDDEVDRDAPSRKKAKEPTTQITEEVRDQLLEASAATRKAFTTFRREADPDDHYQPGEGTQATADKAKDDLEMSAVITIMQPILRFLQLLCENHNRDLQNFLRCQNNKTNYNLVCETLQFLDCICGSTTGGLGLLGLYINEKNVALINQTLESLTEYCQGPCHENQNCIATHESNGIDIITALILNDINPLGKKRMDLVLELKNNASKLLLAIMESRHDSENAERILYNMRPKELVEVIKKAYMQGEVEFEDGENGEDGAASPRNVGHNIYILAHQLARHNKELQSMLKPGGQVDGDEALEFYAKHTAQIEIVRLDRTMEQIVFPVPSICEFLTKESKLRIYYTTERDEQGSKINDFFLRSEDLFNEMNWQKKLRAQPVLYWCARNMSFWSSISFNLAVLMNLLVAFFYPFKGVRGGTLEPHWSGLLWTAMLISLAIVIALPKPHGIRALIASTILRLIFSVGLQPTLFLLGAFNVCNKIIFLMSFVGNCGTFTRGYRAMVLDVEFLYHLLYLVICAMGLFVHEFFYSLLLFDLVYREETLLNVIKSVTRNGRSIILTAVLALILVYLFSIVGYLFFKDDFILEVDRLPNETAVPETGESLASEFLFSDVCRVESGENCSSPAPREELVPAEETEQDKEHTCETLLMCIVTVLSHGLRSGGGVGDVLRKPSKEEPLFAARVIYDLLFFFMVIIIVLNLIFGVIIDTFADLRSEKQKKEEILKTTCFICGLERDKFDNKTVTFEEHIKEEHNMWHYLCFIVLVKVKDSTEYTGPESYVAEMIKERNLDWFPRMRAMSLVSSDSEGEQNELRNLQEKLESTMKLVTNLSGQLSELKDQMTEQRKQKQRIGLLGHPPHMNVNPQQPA

[7] = molecular target: Sodium-dependent noradrenaline transporter (Homo sapiens) (UniProt P23975); settings: Compound concentration 10.0 uM
Sequence of Sodium-dependent noradrenaline transporter (Homo sapiens) (P23975 whole entry): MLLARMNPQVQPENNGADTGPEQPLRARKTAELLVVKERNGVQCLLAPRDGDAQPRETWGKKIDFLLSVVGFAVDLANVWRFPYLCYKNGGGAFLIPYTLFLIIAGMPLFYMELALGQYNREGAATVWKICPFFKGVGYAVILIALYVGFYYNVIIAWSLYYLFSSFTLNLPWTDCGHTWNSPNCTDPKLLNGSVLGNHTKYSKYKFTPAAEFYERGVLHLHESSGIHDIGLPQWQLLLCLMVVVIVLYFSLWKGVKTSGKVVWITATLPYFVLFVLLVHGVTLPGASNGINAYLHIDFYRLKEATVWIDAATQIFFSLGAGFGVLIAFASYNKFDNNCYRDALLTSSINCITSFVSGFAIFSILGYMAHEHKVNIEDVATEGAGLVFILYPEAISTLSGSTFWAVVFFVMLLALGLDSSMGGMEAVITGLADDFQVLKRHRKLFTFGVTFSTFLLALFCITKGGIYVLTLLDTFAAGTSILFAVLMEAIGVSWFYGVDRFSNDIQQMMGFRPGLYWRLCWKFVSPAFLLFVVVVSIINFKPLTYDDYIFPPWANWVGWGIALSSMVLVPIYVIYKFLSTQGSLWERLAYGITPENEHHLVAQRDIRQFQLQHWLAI

[8] = molecular target: Neuropeptide Y receptor type 1 (Homo sapiens) (UniProt P25929); assay: Inhibition of Neuropeptide Y Y1 at 10 µM in the Eurofins-Panlabs radioligand binding assay (Eurofins_assay_257010); settings: Compound concentration 10.0 uM
Sequence of Neuropeptide Y receptor type 1 (Homo sapiens) (P25929 whole entry): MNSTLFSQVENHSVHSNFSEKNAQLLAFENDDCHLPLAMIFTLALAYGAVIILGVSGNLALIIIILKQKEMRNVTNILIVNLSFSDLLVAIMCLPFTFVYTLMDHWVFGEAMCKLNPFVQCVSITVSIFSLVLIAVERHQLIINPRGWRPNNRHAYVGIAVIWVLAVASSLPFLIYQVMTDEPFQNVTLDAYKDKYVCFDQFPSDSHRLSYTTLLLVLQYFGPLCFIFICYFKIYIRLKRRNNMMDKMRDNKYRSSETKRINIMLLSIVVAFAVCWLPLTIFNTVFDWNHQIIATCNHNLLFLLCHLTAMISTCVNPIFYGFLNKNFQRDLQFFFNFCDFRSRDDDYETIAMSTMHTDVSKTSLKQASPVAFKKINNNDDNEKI

[9] = organism: Rattus norvegicus; assay: Serotonin (5-Hydroxytryptamine) 5-HT1, Non-Selective Eurofins-Panlabs radioligand binding assay; type: protein assay; settings: Compound concentration 10.0 uM
[10] = molecular target: Caspase-7 (Homo sapiens) (UniProt P55210); assay: Peptidase, CASP7 (Caspase 7) Eurofins-Panlabs enzyme assay; settings: Compound concentration 10.0 uM
[11] = molecular target: Somatostatin receptor type 3 (Homo sapiens) (UniProt P32745); assay: Somatostatin sst3 Eurofins-Panlabs radioligand binding assay; settings: Compound concentration 10.0 uM
Sequence of Somatostatin receptor type 3 (Homo sapiens) (P32745 whole entry): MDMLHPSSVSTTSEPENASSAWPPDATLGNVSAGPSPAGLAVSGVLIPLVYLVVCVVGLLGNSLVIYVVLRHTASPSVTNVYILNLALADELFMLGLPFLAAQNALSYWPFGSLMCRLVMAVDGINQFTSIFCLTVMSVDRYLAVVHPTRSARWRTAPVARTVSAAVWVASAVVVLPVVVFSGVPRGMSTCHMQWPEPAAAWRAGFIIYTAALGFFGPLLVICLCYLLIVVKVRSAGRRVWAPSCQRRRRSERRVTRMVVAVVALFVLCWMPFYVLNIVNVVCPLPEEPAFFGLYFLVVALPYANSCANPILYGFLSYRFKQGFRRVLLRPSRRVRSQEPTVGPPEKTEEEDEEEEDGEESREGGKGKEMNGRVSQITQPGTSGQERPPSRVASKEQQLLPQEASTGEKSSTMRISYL

[12] = molecular target: 5-hydroxytryptamine receptor 4 (Homo sapiens) (UniProt Q13639); assay: Inhibition of Serotonin (5-Hydroxytryptamine) 5-HT4 at 10 µM in the Eurofins-Panlabs radioligand binding assay (Eurofins_assay_272000); settings: Cavia porcellus; Compound concentration 10.0 uM
Sequence of 5-hydroxytryptamine receptor 4 (Homo sapiens) (Q13639 whole entry): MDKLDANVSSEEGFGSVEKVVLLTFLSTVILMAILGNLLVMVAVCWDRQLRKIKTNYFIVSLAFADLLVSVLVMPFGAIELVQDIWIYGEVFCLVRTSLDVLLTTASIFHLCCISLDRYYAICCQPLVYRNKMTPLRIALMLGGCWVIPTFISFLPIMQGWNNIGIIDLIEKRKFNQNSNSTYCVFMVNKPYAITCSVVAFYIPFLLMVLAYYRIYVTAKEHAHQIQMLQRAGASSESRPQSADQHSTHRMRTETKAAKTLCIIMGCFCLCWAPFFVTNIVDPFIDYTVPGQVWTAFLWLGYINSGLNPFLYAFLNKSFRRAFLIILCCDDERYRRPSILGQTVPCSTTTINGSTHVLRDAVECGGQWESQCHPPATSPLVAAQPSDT

N#CC1(c2ccccn2)CCN(Cc2cc(C(=O)O)c(=O)n3ccccc23)CC1 [MSD-M1PAM]
inactive: inhibition [1] 25% | inhibition [2] 29% | inhibition [3] -2% | Agonism inflection point [4] 7.38 µM | inhibition [5] 3% | inhibition [6] -3% | inhibition [7] 8% | inhibition [8] -1% | inhibition [9] 5% | inhibition [10] 5% | inhibition [11] 2% | inhibition [12] 6%

From ChEMBL document CHEMBL4507295 (2021)
